Measurements taken from patent US20020111373A1, “Hydrochloride salt of a fused heterocyclic compound” (SANKYO COMPANY, LIMITED, priority 1999, published 2002).
In brackets after ≈: the same amount, converted by molar mass.

Columns and labels:
[1] = system: spontaneously diabetic rats (ZDF/Gmi-fa/fa); assay: Blood sugar lowering activity test in spontaneously diabetic rats; format: in vivo, rat; conditions: for Blood Sugar Level: male ZDF/Gmi-fa/fa rats, average of 6
Protocol: Male spontaneously diabetic rats (ZDF/Gmi-fa/fa) which were 8-10 weeks old were used.
The test compound was suspended in 0.5% CMC solution, and a dose of 0.33 mg/ml/kg was orally administered consecutively for 2 weeks under compulsion. The blood sugar level was measured in a conventional manner. Thus, the tail end (about 1 mm) of rat was cut, and the blood was collected with a hematocrit tube treated with heparin for anti-coagulation and centrifuged. The resultant plasma was measured with Glucoloader F (A&T).

[2] = Solubility experiment in 1st fluid of Japanese Pharmacopeia; format: physicochemical; conditions: 37° C.; for solubility at 1 h: pH 1.2, simulated gastric fluid, thermodynamic from solid, 40 mg in 200 ml 1st fluid of Japanese Pharmacopeia, HPLC, read-out: Solubility 1.0 hour later
Protocol: To 200 ml of the 1st fluid of Japanese Pharmacopeia (1000 ml solution made by mixing 2.0 g of sodium chloride with 7.0 ml of hydrochloric acid and water) were added 40 mg of Compound A or Compound B, and the mixture was stirred with a stirrer at 37° C. in a 300 ml conical beaker. One hour later, 10 ml of the sample were filtered through Acrodisk LC13 (PVDF, manufactured by German Science Co.). The initial 3 ml were discarded, and the following 7 ml were taken into a test tube. Of this sample, 5 ml were taken accurately with a whole pipette and added to 2 ml of methanol accurately measured in advance in a test tube.
The quantity was measured by HPLC and the solubility was decided from a calibration curve made according to the following procedure.
The calibration curve was made by preparing a methanolic standard solution of Compound A at a concentration of 400 μg/ml, 100 μg/ml and 20 μg/ml, mixing each 2 ml of the standard solution with 5 ml of the 1st fluid of Japanese Pharmacopeia and determined by HPLC.
Analytical column: L-column ODS (4.6 mm ID×15 cm, manufactured by Chemicals Evaluation Research Institute Japan)
Mobile phase: 0.01 mol/L acetic acid buffer solution (pH 5.0)/acetonitrile mixture (13:7)
Flow rate: about 1.0 ml/min.
Column temperature: 40° C.
Detector: ultraviolet absorptiometer (measuring wavelength: 290 nm)

[3] = 3 Days, 0.33 mg/ml/kg orally, consecutive dosing
[4] = 7 Days, 0.33 mg/ml/kg orally, consecutive dosing
[5] = 14 Days, 0.33 mg/ml/kg orally, consecutive dosing

COc1ccc2nc(COc3ccc(CC4SC(=O)NC4=O)cc3)n(C)c2c1 (stereo not drawn) [Compound B, 5-[4-(6-methoxy-1-methyl-1H-benzimidazol-2-ylmethoxy)benzyl]-thiazolidin-2,4-dione, reference compound]
Blood Sugar Level ([1]; 0 Hour (baseline)): 456 mg/dL | Blood Sugar Level [1, 3]: 379 mg/dL | Blood Sugar Level [1, 4]: 409 mg/dL | Blood Sugar Level [1, 5]: 535 mg/dL | solubility at 1 h [2]: 41 µg/mL (≈ 103 µM)

COc1ccc2nc(COc3ccc(CC4SC(=O)NC4=O)cc3)n(C)c2c1.Cl (stereo not drawn) [Compound A, 5-[4-(6-methoxy-1-methyl-1H-benzimidazol-2-ylmethoxy)benzyl]thiazolidin-2,4-dione hydrochloride]
Blood Sugar Level ([1]; 0 Hour (baseline)): 456 mg/dL | Blood Sugar Level [1, 3]: 228 mg/dL | Blood Sugar Level [1, 4]: 206 mg/dL | Blood Sugar Level [1, 5]: 207 mg/dL | hypoglycemic activity (comparison in words) ([1]; from Table 1, ZDF/Gmi-fa/fa rats, 0.33 mg/ml/kg orally for 2 weeks): more excellent hypoglycemic activity than Compound B | solubility (comparison in words) ([2]; from Table 2, 1st fluid of Japanese Pharmacopeia): markedly better solubility than Compound B | solubility at 1 h [2]: 86.4 µg/mL
